# According to patent US20220202774A1, “PHARMACEUTICAL COMPOSITION FOR PREVENTION OR TREATMENT OF SPINAL CORD INJURY OR SPINAL STENOSIS” (NEUROBIT SCIENCE CO., LTD., priority 2019, published 2022):
# Read-outs that look alike come from different tables or passages of the source.
# Key:
# [1] = tested on: LPS-induced PGE2 production in RAW 264.7 (a murine macrophage cell line); test: Inhibition of production of LPS-induced PGE2 by macrophage cell line; assay type: cell-based; conditions: Mus musculus
# Method: RAW 264.7 (a murine macrophage cell line) was obtained from Korea Cell Line Bank (KCLB). RAW 264.7 was cultured in Dulbecco's Modified Eagle Medium (DMEM) containing 10% fetal bovine serum (FBS), penicillin (100 units/mL), and streptomycin sulfate (100 μg/mL) at 37° C. and in a humidified atmosphere of 5% carbon dioxide in air.
# Using DMEM, 1 mL each of RAW 264.7 with a concentration of 5×10^5 cells/mL was seeded in 24 wells. The seeded cells were left overnight, the medium was changed, and then the drug was treated at an appropriate concentration. After incubating for 1 hour, LPS was treated at 1 μg/ml, followed by incubation for 24 hours (or an appropriate length of time). The supernatant was taken and diluted 5-fold. 150 μl of an assay buffer was added to Non-Specific Binding (NSB) wells, and 100 μl of the assay buffer was added to zero standard (Bo) wells. 100 μl of standard sample and 50 μl of PGE2 conjugates were added to the remaining wells (excluding the NSB wells). 50 μl of PGE2 antibody solution was added to the wells and shaken for 2 hours. The contents of each well were suctioned off, and the wells were washed 5 times with wash buffer. 200 μl of para-nitrophenyl phosphate (pNPP) substrate was added to all wells. After storing the wells at room temperature (in a clean bench) for 1 hour, 50 μl of a stop solution was added, and absorbance was measured at 405 nm. […]
# [2] = tested on: RAW 264.7 (the murine macrophage cell line); test: Cytotoxicity of macrophages (MTT assay); assay type: cell-based; conditions: Mus musculus, RAW264.7; RAW 264.7, LPS 1 μg/ml, 24 hours; read-out: Cell viability(μM) (IC50, MTT assay)
# Method: The physiological activity of 3-(4-chlorophenyl)-4-(4-aminosulfonyl-phenyl)-1-methyl-1H-pyrrole-2,5-dione prepared according to Example 2 has been expressed in terms of IC50, which is the concentration at which there is 50% inhibition of the activity of an enzyme. On the other hand, for the cytotoxicity of the compounds according to the present invention, cell viability values (IC50) were measured using the MTT assay.
# RAW 264.7 (the murine macrophage cell line) was cultured in DMEM containing 10% FBS, penicillin (100 units/ml), and streptomycin sulfate (100 μg/ml) at 37° C. and in a humidified atmosphere of 5% carbon dioxide in air. Cells were collected using centrifugation and a scraper. The cells were added at a concentration of 1×10^5 cells/well to wells of a 96-well plate containing Roswell Park Memorial Institute (RPMI) 1640 medium, which includes 10% FBS. 3 beta, 4 beta-epoxy-8a-isobutyryloxyguaia-1(10),11, (13)-diene-12.6a-olide was dissolved in methylsulfoxide (DMSO) as a solvent. […] After one night, samples and LPS (1 μg/ml) were added to the wells, and the plate was incubated for 24 hours. […]
# [3] = tested on: chronic mechanical allodynia-induced rats; test: Paw withdrawal threshold (von Frey) in chronic mechanical allodynia-induced rats after compression of the cauda equina; assay type: in vivo, Sprague-Dawley rats
# Method: For experiments related to the present invention, a total of 167 male Sprague-Dawley rats (250 to 270 g, Samtako, Osan, Korea) were used. The rats were kept in an environment of room temperature (23±1° C.) and 60±10% humidity under a 12-hour light/12-hour dark cycle (light on from 07:30 to 19:30) and given free access to water and food. The rats were housed individually in cages (410×282×153 mm, clear polycarbonate) lined with aspen shaving bedding and fed a commercial diet (5L79, PMI Nutrition International, St Louis, Mo.) and a commercial standard feed (Lab Diet 5L791 Purina Mills, Richmond, Ind.). All animal experiments were performed in accordance with the guidelines of the Animal Protection Committee of Kyung Hee University (Permission No. KHUASP(SE)-15-006) and in compliance with the ethical guidelines of the International Association for the Study of Pain.
# More specifically, the rats were anesthetized by administering chloral hydrate (500 mg/kg) as an intraperitoneal injection, the backside of each rat was shaved, and the L4 to S2 vertebral plates were exposed.
# Next, the ligamenta flava between L4 and L5 were removed. […]
# Mechanical allodynia was assessed by detecting responses to stimulation with calibrated von Frey filaments and evaluated in terms of paw withdrawal threshold (PWT). […]
# TNF-α mRNA = test: RT-PCR of TNF-α mRNA in cauda equina of chronic mechanical allodynia-induced rats; assay type: in vivo, Sprague-Dawley rats; conditions: 30 minutes after administering
# Method: (§1) Only rats with a weight in the range of 350 to 380 g and in which chronic mechanical allodynia (2.5-4.0 g) was induced on the 28th day of compression of the cauda equina were selected as the experimental group. The rats were randomly assigned to three experimental groups treated with a vehicle, celecoxib, or the compound according to the present invention.
# (§2) Celecoxib (Sigma, St. Louis, Mo.) or the compound according to the present invention was dissolved in methyl pyrrolidone:Tween-80:saline (1:1:8, 100 μl) and injected intraperitoneally at a dose of 2, 5, or 10 mg/kg. The vehicle group was injected with 1-methyl-2-pyrrolidone (1-methyl-2-pyrrolidone:Tween-80:saline (1:1:8)) at an equal dose.
# (§3) At the time of the peak effect (30 minutes after injection of drug), the rats were anesthetized by injecting chloral hydrate (500 mg/kg) and perfused with 0.1 M PBS (pH 7.4), followed by perfusion with a solution containing 4% paraformaldehyde added to PBS.
# (§4) For analysis at the molecular level, the rats were perfused with 0.1 M PBS, and a 20 mm-thick section of the cauda equina with the site of injury at the center was isolated and kept frozen at −80° C. until use.
# (§5) RT-PCR of TNF-α, IL-1β, IL-6, iNOS, and GAPDH was performed. […]
# IL-6 mRNA = test: RT-PCR of IL-6 mRNA in cauda equina of chronic mechanical allodynia-induced rats; assay type: in vivo, Sprague-Dawley rats; conditions: 30 minutes after administering
# Method: as §1, §2, §3, §4, §5
# iNOS mRNA = test: RT-PCR of iNOS mRNA in cauda equina of chronic mechanical allodynia-induced rats; assay type: in vivo, Sprague-Dawley rats; conditions: 30 minutes after administering
# Method: as §1, §2, §3, §4, §5
# IL-1β mRNA = test: RT-PCR of IL-1β mRNA in cauda equina of chronic mechanical allodynia-induced rats; assay type: in vivo, Sprague-Dawley rats
# Method: as §1, §2, §3, §4, §5
# PGE2 = PGE2 level in cauda equina fibers by ELISA; assay type: in vivo, Sprague-Dawley rats
# Method: as §1, §2, §4
# Levels of PEG2 in the cauda equina fibers were analyzed using a PEG2 ELISA kit (Monoclonal, Cayman Chemical Ann Arbor, Mich.) according to the manufacturer's instructions.
# An experiment was performed using rats administered with celecoxib and the compound according to the present invention to confirm through RT-PCR whether production of inflammatory mediators is inhibited. Another experiment was performed to confirm through ELISA whether production of PGE2 is inhibited.
smiles,measurement,setting,value
"CN1C(=O)C(c2ccc(Cl)cc2)=C(c2ccc(S(N)(=O)=O)cc2)C1=O [3-(4-chlorophenyl)-4-(4-aminosulfonyl-phenyl)-1-methyl-1H-pyrrole-2,5-dione]",IC50,"[1]; RAW264.7, 24 h, RAW 264.7, LPS 1 μg/ml, 24 hours, read-out: IC50(μM) PGE2",0.0087 µM
same,IC50,"[1]; RAW264.7, RAW 264.7, LPS-induced, text/FIG. 2, read-out: IC50 value for inhibition of PGE2 production",0.00595 µM
same,IC50,[2],> 10 µM
same,PWT compared to the vehicle group,"[3]; 2, 5, 10 mg/kg intraperitoneal, 30 minutes after injecting",increased significantly in a dose-dependent manner
same,duration of analgesic effect,"[3]; high dose, intraperitoneal",3 h
same,expression of TNF-α mRNA,TNF-α mRNA,significantly reduced
same,expression of IL-6 mRNA,IL-6 mRNA,significantly reduced
same,expression of iNOS mRNA,iNOS mRNA,significantly reduced
same,expression of IL-1β mRNA,IL-1β mRNA,significantly reduced
same,PGE2 production compared to the vehicle group,PGE2,significantly reduced
